≈ marks a conversion by molar mass, not a printed value. Values belong to the compound of their own block, whether it stands above or below them.
Columns and labels:
U-87 MG [1] = assay: Cytotoxicity against human U-87 MG cells assessed as reduction in cell growth incubated for 48 hrs by MTT assay; format: functional, cell-based, U-87MG ATCC
T98G [2] = assay: Growth inhibition of human T98G cells measured after 72 hrs by MTT assay; format: functional
[3] = Growth inhibition of human U373 MG cells measured after 72 hrs by MTT assay; format: functional, U-373MG ATCC
Hs68 = assay: Growth inhibition of human Hs68 cells measured after 72 hrs by MTT assay; format: functional
U-87 MG [4] = assay: Growth inhibition of human U-87 MG cells measured after 72 hrs by MTT assay; format: functional, U-87MG ATCC
T98G [5] = assay: Antiproliferative activity against human T98G cells assessed as reduction in cell viability measured for 24 hrs by MTT assay; format: functional, cell-based
U-87 MG [6] = assay: Antiproliferative activity against human U-87 MG cells assessed as reduction in cell viability incubated for 72 hrs by MTT assay; format: functional, cell-based, U-87MG ATCC
U-251 [7] = assay: Antiproliferative activity against human U-251MG cells assessed as reduction in cell viability incubated for 72 hrs by MTT assay; format: functional, cell-based; conditions: U-251, 72 h
U-118-MG = assay: Antiproliferative activity against human U-118-MG cells assessed as reduction in cell viability incubated for 72 hrs by MTT assay; format: functional, cell-based
T98G [8] = assay: Antiproliferative activity against human T98G cells assessed as reduction in cell viability by MTT assay; format: functional, cell-based
LN-18 = assay: Antiproliferative activity against human LN-18 cells assessed as inhibition of cell growth incubated for 72 hrs MTS assay; format: functional, cell-based; conditions: LN-18, 72 h
C6 [9] = assay: Antiproliferative activity against rat C6 cells assessed as reduction in cell viability by MTT assay; format: functional, cell-based
[10] = Antiproliferative activity against human SHG-44 cells assessed as reduction in cell viability by MTT assay; format: functional, cell-based
LN-229 = assay: Antiproliferative activity against human LN-229 cells assessed as reduction in cell viability by MTT assay; format: functional, cell-based
C6 [11] = assay: Antiproliferative activity against rat C6 cells assessed as reduction in cell growth at 10 uM incubated for 24 hrs by MTT assay relative to control; format: functional; set-up: scale not given: the % may be the effect or the level left
U-87 MG [12] = assay: Cytotoxicity against human U-87 MG cells assessed as reduction in cell viability incubated for 72 hrs by neutral red uptake assay; format: functional, cell-based, U-87MG ATCC
U-87 MG [13] = assay: Cytotoxicity against human U-87 MG cells assessed as reduction in cell viability in presence of Jerantinine B incubated for 72 hrs by neutral red uptake assay; format: functional, cell-based, U-87MG ATCC
U-87 MG [14] = assay: Antiproliferative activity against human U-87-MG cells; format: functional, cell-based, U-87MG ATCC
C6 [15] = assay: Antiproliferative activity against rat C6 cells assessed as reduction in cell growth incubated for 24 hrs by MTT assay; format: functional
C6 [16] = assay: Antiproliferative activity against rat C6 cells assessed as reduction in cell growth incubated for 48 hrs by MTT assay; format: functional, cell-based; conditions: C6, 48 h
C6 [17] = assay: Antiproliferative activity against rat C6 cells assessed as reduction in cell growth incubated for 72 hrs by MTT assay; format: functional, cell-based; conditions: C6, 72 h
U-251 [18] = assay: Antiproliferative activity against human U-251MG cells assessed as reduction in cell growth incubated for 24 hrs by MTT assay; format: functional, cell-based; conditions: U-251, 24 h
U-251 [19] = assay: Antiproliferative activity against human U-251MG cells assessed as reduction in cell growth incubated for 48 hrs by MTT assay; format: functional, cell-based; conditions: U-251, 48 h
U-251 [20] = assay: Antiproliferative activity against human U-251MG cells assessed as reduction in cell growth incubated for 72 hrs by MTT assay; format: functional, cell-based; conditions: U-251, 72 h
U-251 [21] = assay: Cytotoxicity against human U-251MG cells assessed as reduction in cell growth; format: functional, cell-based
SF-268 = assay: Cytotoxicity against human SF-268 cells assessed as reduction in cell viability incubated for 72 hrs by MTT assay; format: functional, cell-based; conditions: SF-268, 72 h
U-87 MG [22] = assay: Cytotoxicity against human U-87 MG cells by resazurin dye based assay; format: functional, cell-based, U-87MG ATCC
[23] = Cytotoxicity against human U87MG.deltaEGFR cells by resazurin dye based assay; format: functional, cell-based

Compound: Oc1cc2cccc(O)c2cn1
IC50 (U-87 MG [1]): 3.46 µM

GI50 (U-87 MG [4]): 9 µM
Compound: O[C@@H]1CN2Cc3cc4c(cc3C13C=C[C@H](O)C[C@@H]23)OCO4 (stereo partly drawn)
GI50 (T98G [2]): 9 µM
GI50 [3]: 38 µM
GI50 (Hs68): 11 µM

IC50 (U-87 MG [6]): 21.8 µM
IC50 (U-251 [7]): 9.79 µM
Compound: COc1ccc2cc3[n+](cc2c1OC)CCc1cc2c(cc1-3)OCO2 [BERBERINE]
IC50 (T98G [5]): 134 µg/mL
IC50 (U-118-MG): 35.5 µM
IC50 (T98G [8]): 120 µM
IC50 (LN-18): 89.7 µM
IC50 (C6 [9]): 50.9 µM
IC50 [10]: 0.2748 µg/mL
IC50 (LN-229): 0.0813 µg/mL
Activity (C6 [11]): 88%

Compound: CC(C)=CCC/C(C)=C/CC/C(C)=C/CC[C@]1(C)CCc2cc(O)cc(C)c2O1 [DELTA-TOCOTRIENOL]
IC50 (U-87 MG [12]): 3.12 µg/mL (≈ 7.87 µM)
IC50 (U-87 MG [13]): 1.83 µg/mL

Compound: COc1cc2c(cc1OC)-c1c3c(cc4c1[C@H](C2)N(C)CC4)OCO3 [DICENTRINE]
IC50 (U-87 MG [14]): 4.73 µM

EC50 (U-251 [18]): 112 µM
EC50 (U-251 [19]): 94.2 µM
EC50 (U-251 [20]): 91.2 µM
Compound: COc1ccc2c(c1OC)CN(C)c1c-2ccc2cc3c(cc12)OCO3 [DIHYDROCHELERYTHRINE]
EC50 (C6 [15]): 121.4 µM
EC50 (C6 [16]): 99.8 µM
EC50 (C6 [17]): 93.3 µM

Compound: COc1cccc2c1C(=O)c1c(O)c3c(c(O)c1C2=O)C[C@@](O)(C(=O)CO)C[C@@H]3O[C@H]1C[C@H](N)[C@H](O)[C@H](C)O1 [DOXORUBICIN]
IC50 (U-251 [21]): 0.237 µM
IC50 (SF-268): 0.7 µM
IC50 (U-87 MG [22]): 1.06 µM
IC50 [23]: 6.11 µM

— ChEMBL document CHEMBL6115010, “Targeting glioma with heteroaromatic alkaloids: A review of potential therapeutics” (Bioorg Med Chem, 2025)
